Counter-ions that a name gives are not always drawn.
What was measured:
rats [1] = assay: Conditioned place preference; format: in vivo, rat; settings: morphine 1 mg/kg s.c.; for mean change from baseline (time in drug-paired compartment): rats
rats [2] = settings: rat, in vivo

CN1CC[C@]23c4c5ccc(O)c4O[C@H]2[C@@H](O)C=C[C@H]3[C@H]1C5 [Morphine, Morphine sulfate]
place preference (rats [1]; vs saline, two-way ANOVA p = 0.0013): significant place preference
mean change from baseline (time in drug-paired compartment) (rats [1]; test session one): +83.4 sec
mean change from baseline (time in drug-paired compartment) (rats [1]; test session two): +96.62 sec
responding (drug infusions) vs saline (rats [2]): significantly greater responding than saline

— PMC4552603 (Pharmacology, biochemistry, and behavior, 2015)
